Laboratory results published in US7318917B2, “Rapid assays for neurotransmitter transporters” (Vanderbilt University, priority 2002, dated 2008).

What was measured:
[1] = biological target: T1, NET (Homo sapiens, UniProt P23975); assay: ASP+ accumulation in HEK-hNET cells by confocal fluorescence microscopy (phase I binding, phase II transport); parameters: NET-mediated ASP accumulation after pre-incubation (endocytosis test): dose or concentration left out as unconfirmed; conditions: for phase II (ASP+ transport) slope in the presence of the agent: 10 min pre-incubation with 10 μM cocaine or 30 μM NE; for phase II (ASP+ transport) slope in the presence of the agent / phase I (ASP+ binding) slope in the presence of the agent: then 2 μM ASP+, gramicidin 10 mg/mL 15 min before ASP+; for phase I (ASP+ binding) slope in the presence of the agent: 10 min pre-incubation with 10 μM desipramine, 10 μM cocaine or 30 μM NE
[2] = biological target: T1, NET; assay: [3H]NE accumulation (radiolabeled transport assay) in hNET-transfected HEK-293 cells; format: cell-based; parameters: expressed in transfected cells; conditions: Cheng-Prusoff correction, non-specific by 10 μM desipramine, N=5, mean±S.E.M., read-out: Ki, inhibition of [3H]NE accumulation
Method: FIG. 1. MPP^+ and ASP^+ inhibit NE accumulation. [^3H]NE accumulation was measured in the hNET-transfected HEK-293 cells in the presence of increasing concentrations of ASP^+ or MPP^+ and normalized to similar data in the absence of an inhibitor. […]. The data were fit to NE transport remaining by the equation y=100/(1+([I]/IC50)^n), where [I] is the concentration of ASP^+ or MPP^+ and Ki values were determined using Cheng-Prusoff correction for substrate concentration. […] Values are represented as means±S.E.M., N=5.
All accumulation studies were performed at room temperature (22° C.) unless otherwise indicated. HEK-hNET cells were plated on poly-L-lysine coated 24-well tissue culture plates at 10^5 cells per well three days prior to performing transport assays. The cells were at approximately 90% confluence on the third day. The medium was removed by aspiration. Cells were then pre-incubated for 10 min in Krebs-Ringer's-Hepes (KRH: in mM 130 NaCl, 1.3 KCl, 2.2 CaCl2, 1.2 MgSO4, 1.2 KH2PO4, 10 Hepes, and 1.8 g/L glucose, pH 7.4) medium with or without 10 μM desipramine. […]. Pargyline (10 μM) and ascorbic acid (10 μM) were added to prevent metabolism and oxidation of NE, respectively. The assay mixture was aspirated after 10 minutes and cells were washed three times with 4° C. […] Accumulated [^3H]NE was determined by liquid scintillation of 1% (w/v) sodium dodecylsulphate solubilized cells. […]

[3] = test system: NET; format: cell-based; conditions: 2 μM ASP+, 10 min pre-incubation with 10 μM desipramine
Method: SCG neurons were dissociated by trituration followed by digestion with 0.25% trypsin and 0.3% collagenase. Non-neuronal cells were removed by preplating on uncoated, Falcon 60 mm plates. Neurons were cultured on poly-L-ornithine/laminin/poly D-lysine coated MatTek Dishes at a density of 3000-4000 cells/well in F-14^+ media containing 5% fetal calf serum, 2 mM L-glutamine, 60 ng/ml progesterone, 16 mg/ml putrescine, 400 ng/ml L-thyroxine, 38 ng/ml sodium selenite, 340 ng/ml tri-iodothyroxine, 5 mg/ml insulin, penicillin/streptomycin, 10 μM fluorodeoxyuridine and 20 ng/ml NGF. The neurons were maintained for 3-5 days in the presence of NGF before use.
The interactions of ASP^+ with NET in primary tissue culture neurons were also examined.

[4] = test system: OCT; conditions: 10 μM; cited from earlier work

T1 sequence (P23975 whole entry): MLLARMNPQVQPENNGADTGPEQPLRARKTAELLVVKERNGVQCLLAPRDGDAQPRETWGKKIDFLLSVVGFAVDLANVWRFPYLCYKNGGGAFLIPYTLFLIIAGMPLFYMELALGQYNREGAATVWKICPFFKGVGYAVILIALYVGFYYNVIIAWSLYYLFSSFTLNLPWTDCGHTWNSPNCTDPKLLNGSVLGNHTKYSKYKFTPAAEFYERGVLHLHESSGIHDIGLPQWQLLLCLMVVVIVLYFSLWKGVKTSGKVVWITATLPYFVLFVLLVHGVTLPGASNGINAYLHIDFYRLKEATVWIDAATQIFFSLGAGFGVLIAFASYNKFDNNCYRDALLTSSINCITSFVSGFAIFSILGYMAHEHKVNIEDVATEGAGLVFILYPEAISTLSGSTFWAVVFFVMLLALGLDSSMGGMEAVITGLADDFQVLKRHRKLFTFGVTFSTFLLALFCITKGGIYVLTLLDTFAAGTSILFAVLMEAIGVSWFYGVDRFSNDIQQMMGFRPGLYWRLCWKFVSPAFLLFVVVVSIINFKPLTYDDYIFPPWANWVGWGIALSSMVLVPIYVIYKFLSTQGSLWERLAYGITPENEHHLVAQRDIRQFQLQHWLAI

OC[C@H]1O[C@@](CO)(O[C@H]2O[C@H](CO)[C@@H](O)[C@H](O)[C@H]2O)[C@@H](O)[C@@H]1O [sucrose]
NET-mediated ASP accumulation after pre-incubation (endocytosis test) ([1]; thirty-minute pre-incubation): unaffected

NC[C@H](O)c1ccc(O)c(O)c1 [NE]
phase II (ASP+ transport) slope in the presence of the agent [1]: reduced | phase I (ASP+ binding) slope in the presence of the agent [1]: insignificant | effect on ASP+ accumulation in hNET-expressing HEK cells ([1]; summary statement): competed for

C[n+]1ccc(-c2ccccc2)cc1 [MPP^+]
Ki [2]: 600 ± 67 nM

Gramicidin
phase II (ASP+ transport) slope in the presence of the agent [1]: reduces the slope | phase I (ASP+ binding) slope in the presence of the agent [1]: reduces the slope

CNCCCN1c2ccccc2CCc2ccccc21 [desipramine]
sensitivity of ASP+ accumulation in SCG cells to desipramine [3]: desipramine sensitive | effect on OCT activity [4]: without affecting
